Test results from article PMC11678425, “(-)-Syringaresinol Exerts an Antidepressant-like Activity in Mice by Noncompetitive Inhibition of the Serotonin Transporter” (Pharmaceuticals, 2024).

How the values were obtained:
hSERT Q111N = molecular target: T1, hSERT Q111N (Homo sapiens, UniProt P31645, Q111N); experiment: ASP^+ binding, hSERT Q111N; details: S2 site mutant, read-out: SYR IC50 for Binding
T1 construct: forward and reverse primers were used to amplify a full-length hSERT; expressed in transfected cells; host or cells: HeLa cells, transient, pcDNA3.1
T1 sequence (P31645 whole entry Q111N): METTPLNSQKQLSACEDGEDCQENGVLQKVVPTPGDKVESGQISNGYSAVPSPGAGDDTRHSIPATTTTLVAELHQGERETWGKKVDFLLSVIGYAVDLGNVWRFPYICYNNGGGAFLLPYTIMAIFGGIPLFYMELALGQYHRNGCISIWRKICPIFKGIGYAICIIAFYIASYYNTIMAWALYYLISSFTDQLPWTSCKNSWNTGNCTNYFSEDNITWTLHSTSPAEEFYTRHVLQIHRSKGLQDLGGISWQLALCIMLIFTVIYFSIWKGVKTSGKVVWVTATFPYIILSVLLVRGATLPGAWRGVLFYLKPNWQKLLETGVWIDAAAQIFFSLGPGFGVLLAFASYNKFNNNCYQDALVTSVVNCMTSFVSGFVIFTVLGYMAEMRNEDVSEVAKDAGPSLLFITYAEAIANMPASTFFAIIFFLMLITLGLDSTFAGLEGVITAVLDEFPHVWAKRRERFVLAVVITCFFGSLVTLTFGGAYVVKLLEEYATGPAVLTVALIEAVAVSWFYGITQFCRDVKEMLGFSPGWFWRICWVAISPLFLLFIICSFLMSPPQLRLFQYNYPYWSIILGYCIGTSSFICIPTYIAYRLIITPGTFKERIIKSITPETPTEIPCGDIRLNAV

c-Fos = c-Fos immunohistochemistry in hippocampus of CUMS mice; assay type: in vivo, mouse; details: same dosage as fluoxetine (10 mg/kg i.p.)
Excerpt: Figure 8 SYR effects on the expression of c-Fos and synaptic proteins in the hippocampus. (A) Representative immunohistochemical images of c-Fos expression in the hippocampus with the indicated treatments. (B) Quantitative analysis for hippocampal c-Fos expression with various treatments. Protein expression level is expressed as a percentage of c-Fos fluorescence measured in the control group. Bars represent the mean ± SEM (n = 4). ** p < 0.01 compared with the control or CUMS group by one-way ANOVA followed by post hoc tests. (C) Representative immunoblots of the synaptic proteins BDNF, PSD-95, GluA1, and vGluT1 with various treatments. (D–G) Quantification of the expression of synaptic proteins BDNF (D), PSD-95 (E), GluA1 (F), and vGluT1 (G). The expression level is expressed as a percentage of the integrated density obtained from the control group. Bars represent the mean ± SEM (n = 4). * p < 0.05, ** p < 0.01 by one-way ANOVA followed by post hoc tests.
Mouse mPFC and hippocampal slices were prepared as previously described. Briefly, mice were deeply anesthetized with 4% pentobarbital sodium (Sigma-Aldrich, Saint Louis, MI, USA), and perfused transcardially with PBS, followed by 4% phosphate-buffered paraformaldehyde. […]

hSERT E494Q = molecular target: T2, hSERT E494Q (Homo sapiens, UniProt P31645, E494Q); experiment: ASP^+ binding, hSERT E494Q; details: S2 site mutant, read-out: SYR IC50 for Binding
T2 construct: forward and reverse primers were used to amplify a full-length hSERT; expressed in transfected cells; host or cells: HeLa cells, transient, pcDNA3.1
T2 sequence (P31645 whole entry E494Q): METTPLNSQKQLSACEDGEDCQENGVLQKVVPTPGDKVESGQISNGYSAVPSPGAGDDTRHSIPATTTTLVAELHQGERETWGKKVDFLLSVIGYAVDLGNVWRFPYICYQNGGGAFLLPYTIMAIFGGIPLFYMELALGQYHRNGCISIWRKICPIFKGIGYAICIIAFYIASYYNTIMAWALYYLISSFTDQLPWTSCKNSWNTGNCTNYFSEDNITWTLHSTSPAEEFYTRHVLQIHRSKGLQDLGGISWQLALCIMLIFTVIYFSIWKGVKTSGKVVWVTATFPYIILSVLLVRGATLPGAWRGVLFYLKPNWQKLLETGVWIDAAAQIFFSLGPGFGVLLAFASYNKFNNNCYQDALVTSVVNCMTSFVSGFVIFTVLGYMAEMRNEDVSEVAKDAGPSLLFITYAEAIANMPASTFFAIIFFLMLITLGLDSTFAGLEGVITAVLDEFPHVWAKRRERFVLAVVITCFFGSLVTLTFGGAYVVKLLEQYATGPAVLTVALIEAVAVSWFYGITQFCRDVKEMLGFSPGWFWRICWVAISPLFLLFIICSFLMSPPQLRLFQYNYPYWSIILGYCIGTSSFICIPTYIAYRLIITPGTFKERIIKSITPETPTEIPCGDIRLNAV

hSERT I327A [1] = molecular target: T3, hSERT I327A (Homo sapiens, UniProt P31645, I327A); experiment: APP^+ uptake, hSERT I327A; assay type: cell-based; details: S2 site mutant, read-out: SYR IC50 for Transport
T3 construct: forward and reverse primers were used to amplify a full-length hSERT; expressed in transfected cells; host or cells: HeLa cells, transient, pcDNA3.1
T3 sequence (P31645 whole entry I327A): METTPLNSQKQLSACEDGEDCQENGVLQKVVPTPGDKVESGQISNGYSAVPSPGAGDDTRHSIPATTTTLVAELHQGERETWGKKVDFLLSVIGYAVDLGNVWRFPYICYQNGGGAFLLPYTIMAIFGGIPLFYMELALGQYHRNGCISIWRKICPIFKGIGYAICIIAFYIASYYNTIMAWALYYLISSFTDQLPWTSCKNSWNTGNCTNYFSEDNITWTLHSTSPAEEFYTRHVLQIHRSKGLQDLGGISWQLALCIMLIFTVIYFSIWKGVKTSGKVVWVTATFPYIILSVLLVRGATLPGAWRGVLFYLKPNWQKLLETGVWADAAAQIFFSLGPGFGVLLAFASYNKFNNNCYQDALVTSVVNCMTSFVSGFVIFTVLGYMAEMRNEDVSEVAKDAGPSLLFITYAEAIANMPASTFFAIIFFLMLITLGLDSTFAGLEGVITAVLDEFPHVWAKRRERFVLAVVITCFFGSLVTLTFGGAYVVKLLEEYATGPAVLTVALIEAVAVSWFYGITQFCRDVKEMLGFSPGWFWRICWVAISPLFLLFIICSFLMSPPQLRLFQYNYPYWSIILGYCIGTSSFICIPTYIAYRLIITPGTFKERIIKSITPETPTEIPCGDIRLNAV

hSERT S2 mutants = experiment: APP^+ uptake or ASP^+ binding, all S2 mutants compared with WT; assay type: cell-based, human; details: all S2 mutants tested
Procedure: (§1) HeLa cells were cultured in Dulbecco’s Modified Eagle’s Medium supplemented with 10% fetal bovine serum, 100 units/mL penicillin, and 100 μg/mL streptomycin at 37 °C in a humidified 5% CO2 incubator. Cells grown at ~70% confluence in a 6 cm culture dish were transfected with hSERT cDNA in pcDNA3.1 by lipofectamine 2000. Transfected cells were incubated for 12 h at 37 °C with 5% CO2 and then transferred into 96-well plates. After being grown for an additional 12–16 h, the cells were then assayed for APP^+ uptake or ASP^+ binding.
Measurement of transport or ligand binding activity of SERT was performed by using its fluorescent substrate (APP^+) or ligand (ASP^+), respectively. The cells transiently expressing WT or mutants of hSERT were applied for various treatments. […] APP^+ uptake was measured by adding 100 μL KRH buffer containing 2 μM APP^+ and incubating for 5 min at 22 °C. […] The extent of APP^+ accumulated in the cells was determined by fluorescence spectrometry with an Infinite 200 Pro microplate reader (Tecan, Männedorf, Switzerland).
ASP^+ binding to SERT expressed on the cell surface was measured with digitonin-permeabilized cells as described previously. […] After removing excess ASP^+ by 3× rapid washing, ASP^+ fluorescence retained in the cell membrane was determined by fluorescence spectrometry. […]

hSERT I327A [2] = molecular target: T3, hSERT I327A; experiment: ASP^+ binding, hSERT I327A; details: S2 site mutant, read-out: SYR IC50 for Binding
hSERT Y95F = molecular target: T4, hSERT Y95F (Homo sapiens, UniProt P31645, Y95F); experiment: APP^+ uptake, hSERT Y95F; assay type: cell-based; details: S1 site mutant, read-out: SYR IC50 for Transport
T4 construct: forward and reverse primers were used to amplify a full-length hSERT; expressed in transfected cells; host or cells: HeLa
T4 sequence (P31645 whole entry Y95F): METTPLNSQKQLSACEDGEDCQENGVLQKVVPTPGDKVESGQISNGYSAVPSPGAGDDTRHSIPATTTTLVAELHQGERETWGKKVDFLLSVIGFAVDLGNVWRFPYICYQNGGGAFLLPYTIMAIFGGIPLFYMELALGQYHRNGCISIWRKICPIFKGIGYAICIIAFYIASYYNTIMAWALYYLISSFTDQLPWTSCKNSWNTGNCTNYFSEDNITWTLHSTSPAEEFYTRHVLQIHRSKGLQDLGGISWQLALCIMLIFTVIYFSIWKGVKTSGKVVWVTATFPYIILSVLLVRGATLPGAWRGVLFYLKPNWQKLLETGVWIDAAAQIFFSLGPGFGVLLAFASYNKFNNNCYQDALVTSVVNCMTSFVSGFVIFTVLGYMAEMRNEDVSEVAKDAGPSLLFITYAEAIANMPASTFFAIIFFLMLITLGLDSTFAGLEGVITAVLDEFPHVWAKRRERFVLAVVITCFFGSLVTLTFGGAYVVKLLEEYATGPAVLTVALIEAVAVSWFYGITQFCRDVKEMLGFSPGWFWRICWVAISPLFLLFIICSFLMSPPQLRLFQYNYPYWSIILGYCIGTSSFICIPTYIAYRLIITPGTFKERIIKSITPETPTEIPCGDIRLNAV
Procedure: as §1
Measurement of transport or ligand binding activity of SERT was performed by using its fluorescent substrate (APP^+) or ligand (ASP^+), respectively. The cells transiently expressing WT or mutants of hSERT were applied for various treatments. Briefly, the cells were washed twice with 100 μL KRH buffer containing 20 mM HEPES (Neofroxx, Einhausen, Germany), pH 7.4, 120 mM NaCl, 1.3 mM KCl, 2.2 mM CaCl2, 1.2 mM MgSO4, and 0.1% (w/v) glucose. APP^+ uptake was measured by adding 100 μL KRH buffer containing 2 μM APP^+ and incubating for 5 min at 22 °C. Excess APP^+ was then removed by 3× rapid washing with 100 μL KRH buffer each time. The extent of APP^+ accumulated in the cells was determined by fluorescence spectrometry with an Infinite 200 Pro microplate reader (Tecan, Männedorf, Switzerland). […]

CUMS mice = experiment: Forced swim test (FST) in CUMS mice; assay type: in vivo, mouse
Procedure: C57BL/6 adult (6–8 weeks, body weight, 18–22 g) male mice were maintained and handled in a standard condition at the Experimental Animal Center of Southern Medical University (Guangzhou, China). Animal use was approved by the Animal Use and Care Committee of Southern Medical University (approved code: SMUL2021177, approved date: 12 December 2021). The CUMS procedure was carried out according to a protocol described previously. Except for those in the control group, mice were randomly exposed to two mild unpredictable stressors per day for 3 weeks. The stressors included water deprivation, restraint, tilted cage, wet/no bedding, rotation, peppermint, noise, and inverted light off/on. Mice in the control group were group housed without any stressors throughout the procedure. […] NSFT was performed after 16 h food deprivation, as described previously. The mouse was placed in an open field (24 × 40 × 14 cm), where a new chow was put in the center, and the latency time to bite food was counted over 10 min. Home cage feeding within a 20 min period was measured after the test. FST was carried out according to a protocol described previously. The mouse was placed into a beaker (Bomex, Beijing, China) with a height of 18 cm filled with water (22 ± 1 °C) for 6 min. The immobile time was measured during minutes 2–6. TST was performed according to a previous description. The mouse was suspended from a hook that hung from a suspension bar by placing a piece of adhesive tape on its tail about 1 cm away from the tip. The immobile time during minutes 2–6 was measured.

`COc1cc([C@@H]2OC[C@@H]3[C@H]2CO[C@H]3c2cc(OC)c(O)c(OC)c2)cc(OC)c1O` [SYR, (-)-syringaresinol] was tested, and the IC50 (hSERT Q111N) was 115 ± 2.47 µM, the “CUMS-induced decrease in expression of c-Fos in the hippocampus” value (c-Fos) was “effectively alleviate” and the IC50 (hSERT E494Q) was 9.77 ± 0.78 µM. The IC50 (hSERT I327A [1]) was 19.5 ± 1.02 µM, the “increase of SYR IC50 for APP^+ uptake or ASP^+ binding compared with WT” value (hSERT S2 mutants) was “more than 10 fold” and the IC50 (hSERT I327A [2]) was 53.2 ± 7.01 µM. For the same compound, the IC50 (hSERT Y95F) was 2.64 ± 0.12 µM, the “reversal of behavioral abnormalities in FST” value (CUMS mice; 5 mg/kg, i.p., once per day day 7 to 21) was “did not exhibit a significant response” and the “effect in FST” value (CUMS mice; 10 or 20 mg/kg (i.p.)) was “remarkable antidepressant-like effects”.
